In patent publication US9643964B2, “3-(2-aminopyrimidin-4-yl)-5-(3-hydroxypropynyl)-1H-pyrrolo[2,3-C]pyridine derivatives as NIK inhibitors for the treatment of cancer” (Janssen Pharmaceutica NV, priority 2013, dated 2017):
pEC50, pIC50: −log10 of the molar value.

Legend:
[1] = system: LP-1 cells; assay: Biological Assay C: antiproliferative activity on LP-1 cells (CellTiter-Glo); format: cell-based, human; settings: 72 hr treatment, averaged values
Method: (§1) Determination of Antiproliferative Activity on LP-1, L-363 and JJN-3 Cells
(§2) All compounds tested were dissolved in DMSO and further dilutions were made in culture medium. Final DMSO concentration was 0.3% (v/v) in cell proliferation assays. Viability was assessed using CellTiter-Glo cell viability assay kit (Promega). The human LP-1, L-363 and JJN-3 cells (DSMZ) were cultured in RPMI 1640 medium supplemented with 2 mM L-glutamine, and 10% fetal calf serum (PAA). Cells were routinely kept as suspension cells at 37° C. in a humidified 5% CO2 atmosphere. Cells were passaged at a seeding density of 0.2×10^6/ml twice a week. Cells were seeded in black tissue culture treated 96-well plates (Perkin Elmer). Densities used for plating ranged from 2,000 to 6,000 cells per well in a total volume of 75 μl medium. After twenty four hours, drugs and/or solvents were added (25 μl) to a final volume of 100 μl. Following 72 hr of treatment plates were removed from the incubator and allowed to equilibrate to room temperature for approx 10 min. 100 μl CellTiter-Glo reagent was added to each well that was then covered (Perkin Elmer Topseal) and shaken on plate shaker for 10 min. Luminescence was measured on a HTS Topcount (Perkin Elmer). Within an experiment, the results for each treatment were the mean of 2 replicate wells. For initial screening purposes, compounds were tested using a 9 point dilution curve (serial 1:3 dilutions). For each experiment, controls (containing no drug) and a blank incubation (containing cells read at the time of compound addition) were run in parallel. The blank value was subtracted from all control and sample values. For each sample, the mean value for cell growth (in relative light units) was expressed as a percentage of the mean value for cell growth of the control.

[2] = system: JJN-3 cells; assay: Biological Assay C: antiproliferative activity on JJN-3 cells (CellTiter-Glo); format: cell-based, human; settings: 72 hr treatment, averaged values
Method: as §1, §2

[3] = system: L-363 cells; assay: Biological Assay C: antiproliferative activity on L-363 cells (CellTiter-Glo); format: cell-based, human; settings: 72 hr treatment, averaged values
Method: as §1, §2

[4] = biological target: Recombinant Human NF-kappaB-Inducing Kinase (NIK/MAP3K14) (Homo sapiens, UniProt Q99558); assay: Biological Assay A2: inhibition of auto-phosphorylation of recombinant human NIK/MAP3K14 (AlphaScreen); format: biochemical; settings: auto-phosphorylation; averaged over all measurements on all batches; read-out: αscreen IC50
Chain of Recombinant Human NF-kappaB-Inducing Kinase (NIK/MAP3K14) (Q99558 whole entry): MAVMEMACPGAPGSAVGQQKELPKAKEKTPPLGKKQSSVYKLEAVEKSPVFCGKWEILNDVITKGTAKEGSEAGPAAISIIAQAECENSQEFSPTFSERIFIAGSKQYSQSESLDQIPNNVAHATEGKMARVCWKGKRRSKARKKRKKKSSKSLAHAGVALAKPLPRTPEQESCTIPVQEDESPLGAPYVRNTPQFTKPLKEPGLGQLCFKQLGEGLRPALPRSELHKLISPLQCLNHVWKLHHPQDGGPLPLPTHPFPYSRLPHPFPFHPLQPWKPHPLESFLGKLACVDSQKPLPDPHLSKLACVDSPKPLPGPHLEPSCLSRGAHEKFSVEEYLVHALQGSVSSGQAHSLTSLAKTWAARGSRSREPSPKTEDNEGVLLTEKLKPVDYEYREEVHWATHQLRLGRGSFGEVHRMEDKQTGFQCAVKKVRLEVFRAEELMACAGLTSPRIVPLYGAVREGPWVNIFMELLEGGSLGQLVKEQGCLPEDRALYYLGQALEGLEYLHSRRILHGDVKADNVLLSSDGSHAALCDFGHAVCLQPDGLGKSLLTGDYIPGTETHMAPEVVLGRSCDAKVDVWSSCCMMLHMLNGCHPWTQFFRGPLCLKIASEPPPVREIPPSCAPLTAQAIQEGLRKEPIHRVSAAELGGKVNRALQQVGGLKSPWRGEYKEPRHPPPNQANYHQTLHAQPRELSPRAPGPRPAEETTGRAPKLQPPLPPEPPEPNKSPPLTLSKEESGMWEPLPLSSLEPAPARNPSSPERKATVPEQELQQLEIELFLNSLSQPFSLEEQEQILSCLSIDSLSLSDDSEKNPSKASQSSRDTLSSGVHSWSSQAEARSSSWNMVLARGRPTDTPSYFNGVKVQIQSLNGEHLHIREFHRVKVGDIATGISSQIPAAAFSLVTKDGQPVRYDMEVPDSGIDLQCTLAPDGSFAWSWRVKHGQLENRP
Method: Inhibition of Auto-Phosphorylation of Recombinant Human NF-kappaB-Inducing Kinase (NIK/MAP3K14) Activity (AlphaScreen®)
NIK/MAP3K14 auto-phosphorylation activity was measured using the AlphaScreen® (αscreen) format (Perkin Elmer). All compounds tested were dissolved in dimethyl sulfoxide (DMSO) and further dilutions were made in assay buffer. Final DMSO concentration was 1% (v/v) in assays. Assay buffer was 50 mM Tris pH 7.5 containing 1 mM EGTA (ethylene glycol tetraacetic acid), 1 mM DTT (dithiothreitol), 0.1 mM Na3VO4, 5 mM MgCl2, 0.01% Tween 20. Assays were carried out in 384 well Alphaplates (Perkin Elmer). Incubations consisted of compound, 25 microM Adenosine-5′-triphosphate (ATP), and 0.2 nM NIK/MAP3K14. Incubations were initiated by addition of GST-tagged NIK/MAP3K14 enzyme, carried out for 1 h at 25° C. and terminated by addition of stop buffer containing anti-phospho-IKK Ser176/180 antibody. Protein A Acceptor and Glutathione-Donor beads were added before reading using an EnVision® Multilabel Plate Reader (Perkin Elmer). Signal obtained in the wells containing blank samples was subtracted from all other wells and IC50's were determined by fitting a sigmoidal curve to % inhibition of control versus Log10 compound concentration.

SMILES | pEC50 ([1]; Homo sapiens, LP-1, 72 h) | pEC50 ([2]; Homo sapiens, JJN-3, 72 h) | pEC50 ([3]; Homo sapiens, L-363, 72 h) | pIC50 [4] | pEC50 [1] | pEC50 [2] | pEC50 [3]
CC(O)(C#Cc1cc2c(-c3nc(N)ncc3F)cn(C3CCOC3)c2cn1)C1CC1 (stereo not drawn) [Compound 131] | 6.36 | 6.82 | 7.05 | 7.68 | – | – | –
COCCCn1cc(-c2ccnc(N)n2)c2cc(C#CC(C)(C)O)nc(C)c21 [Compound 84] | 6.60 | 7.17 | 7.66 | 7.17 | – | – | –
COCCN1CCC(n2cc(-c3nc(N)ncc3F)c3cc(C#CC(C)(O)C4CC4)ncc32)CC1 (stereo not drawn) [Compound 126] | – | – | – | 6.85 | 6.19 | 6.57 | 6.55
COCCN1CCC(n2cc(-c3nc(N)ncc3F)c3cc(C#CC(C)(O)C4CC4)ncc32)CC1 (stereo not drawn) [Compound 108] | 6.19 | 6.57 | 6.55 | 6.85 | – | – | –
CC(C)(O)C#Cc1cc2c(-c3nc(N)ncc3C#N)cn(CC3CCOCC3)c2cn1 [Compound 75] | < 5.00 | 6.27 | 6.17 | 7.46 | – | – | –
CCN1CC(n2cc(-c3nc(N)ncc3F)c3cc(C#CC(C)(O)C4CC4)ncc32)C1 (stereo not drawn) [Compound 136] | 6.35 | 6.62 | 6.85 | 6.92 | – | – | –
Cn1cc(Cn2cc(-c3nc(N)ncc3F)c3cc(C#CC(C)(O)C4CC4)ncc32)cn1 (stereo not drawn) [Compound 109] | 5.92 | 6.34 | 6.44 | 6.92 | – | – | –
Nc1ncc(F)c(-c2cn(C3COC3)c3cnc(C#CC(O)(CF)C4CC4)cc23)n1 (stereo not drawn) [Compound 137] | 5.70 | 6.26 | 6.42 | 7.28 | – | – | –
CC(C)N1CC(n2cc(-c3nc(N)ncc3F)c3cc(C#CC(C)(O)C4CC4)ncc32)C1 (stereo not drawn) [Compound 159] | 6.49 | 6.64 | 6.74 | 6.57 | – | – | –
COCCCn1cc(-c2cc(C)nc(N)n2)c2cc(C#CC(C)(C)O)ncc21 [Compound 81] | 4.55 | 5.24 | 5.23 | 7.00 | – | – | –
CCN1CCCC(n2cc(-c3nc(N)ncc3F)c3cc(C#CC(C)(O)C4CC4)ncc32)C1 (stereo not drawn) [Compound 138] | 6.60 | 7.03 | 7.10 | 6.96 | – | – | –
CC(O)(C#Cc1cc2c(-c3nc(N)ncc3F)cn(C3CCN(CCC(F)(F)F)CC3)c2cn1)C1CC1 (stereo not drawn) [Compound 167] | 6.00 | 6.41 | 6.41 | 7.24 | – | – | –
CN1CC(n2cc(-c3nc(N)ncc3F)c3cc(C#CC(C)(O)C4CC4)ncc32)C1 (stereo not drawn) [Compound 135] | 6.39 | 6.74 | 7.19 | 7.17 | – | – | –
COCCCn1cc(-c2nc(N)ncc2F)c2cc(C#CC(C)(O)C3CC3)ncc21 (single isomer, unassigned) [Compound 119] | – | – | – | 6.64 | 5.68 | 6.15 | 6.05
COCCCn1cc(-c2nc(N)ncc2F)c2cc(C#CC3(O)CCCC3)nc(C3CC3)c21 [Compound 93] | 6.07 | 6.51 | 6.60 | 8.00 | – | – | –
COCCCn1cc(-c2nc(N)ncc2F)c2cc(C#CC(C)(O)c3cc(C)on3)ncc21 (stereo not drawn) [Compound 91] | 5.31 | 5.96 | 6.33 | 7.92 | – | – | –
CCN1CCC(n2cc(-c3nc(N)ncc3F)c3cc(C#CC(C)(C)O)ncc32)CC1 [Compound 85] | 6.72 | 7.36 | 7.82 | 7.48 | – | – | –
CCN1CCC(n2cc(-c3nc(N)ncc3F)c3cc(C#CC(C)(O)C4CC4)ncc32)C1 (stereo not drawn) [Compound 141] | 6.49 | 7.02 | 7.25 | 7.18 | – | – | –
CN1CC(n2cc(-c3nc(N)ncc3C(F)(F)F)c3cc(C#CC(C)(O)C4CC4)ncc32)C1 (stereo not drawn) [Compound 99] | 5.70 | 5.96 | 5.96 | 6.96 | – | – | –
CC(O)(C#Cc1cc2c(-c3ccnc(N)n3)cn(C3CCN(C4CC4)CC3)c2cn1)C1CC1 (stereo not drawn) [Compound 164] | 6.17 | 6.41 | 6.57 | 7.05 | – | – | –
CCN1CCC(n2cc(-c3ccnc(N)n3)c3cc(C#CC(C)(C)O)ncc32)CC1 [Compound 79] | 5.70 | 6.80 | 7.21 | 7.33 | – | – | –
CC(O)(C#Cc1cc2c(-c3nc(N)ncc3C(F)(F)F)cn(C3COC3)c2cn1)C1CC1 (stereo not drawn) [Compound 100] | 5.52 | 5.85 | 5.82 | 7.21 | – | – | –
Nc1ncc(F)c(-c2cn(C3COC3)c3c(C4CC4)nc(C#CC4(O)CCCC4)cc23)n1 [Compound 94] | 5.57 | 6.52 | 6.70 | 7.51 | – | – | –
CC(O)(C#Cc1cc2c(-c3nc(N)ncc3F)cn(C3CN(CC4CC4)C3)c2cn1)C1CC1 (stereo not drawn) [Compound 140] | 6.49 | 6.77 | 6.85 | 7.00 | – | – | –
CNc1ncc(F)c(-c2cn(CCCOC)c3cnc(C#CC4(O)CCCC4)cc23)n1 [Compound 89] | 5.12 | 5.43 | 5.38 | 6.89 | – | – | –
COCCCn1cc(-c2nc(N)ncc2F)c2cc(C#CC(C)(O)C3CC3)nc(C(F)F)c21 (stereo not drawn) [Compound 96] | < 5.00 | < 5.00 | 5.18 | 6.77 | – | – | –
CC(O)(C#Cc1cc2c(-c3nc(N)ncc3F)cn(C3CCN(CCF)CC3)c2cn1)C1CC1 (stereo not drawn) [Compound 163] | 6.96 | 6.96 | 7.23 | 7.14 | – | – | –
CC(O)(C#Cc1cc2c(-c3nc(N)ncc3F)c[nH]c2cn1)C1CC1 (stereo not drawn) [Compound 132] | 6.39 | 7.11 | 7.52 | 8.19 | – | – | –
CC(O)(C#Cc1cc2c(-c3nc(N)ncc3F)cn(CC3CCCO3)c2cn1)C1CC1 (stereo not drawn) [Compound 130] | 6.19 | 6.52 | 6.72 | 7.55 | – | – | –
COCCOc1cnc(N)nc1-c1cn(C(C)C)c2cnc(C#CC(C)(O)C3CC3)cc12 (stereo not drawn) [Compound 168] | 7.03 | 7.57 | 7.64 | 7.44 | – | – | –
